The source made the active and inactive calls.
How the values were obtained:
Assay type in all cases: functional
[1] = target: T1, cGMP-dependent protein kinase 1 (Homo sapiens, UniProt Q13976);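 further: value from a kinome panel screen with PRKG1 as the panel member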
T1 sequence (Q13976 whole entry): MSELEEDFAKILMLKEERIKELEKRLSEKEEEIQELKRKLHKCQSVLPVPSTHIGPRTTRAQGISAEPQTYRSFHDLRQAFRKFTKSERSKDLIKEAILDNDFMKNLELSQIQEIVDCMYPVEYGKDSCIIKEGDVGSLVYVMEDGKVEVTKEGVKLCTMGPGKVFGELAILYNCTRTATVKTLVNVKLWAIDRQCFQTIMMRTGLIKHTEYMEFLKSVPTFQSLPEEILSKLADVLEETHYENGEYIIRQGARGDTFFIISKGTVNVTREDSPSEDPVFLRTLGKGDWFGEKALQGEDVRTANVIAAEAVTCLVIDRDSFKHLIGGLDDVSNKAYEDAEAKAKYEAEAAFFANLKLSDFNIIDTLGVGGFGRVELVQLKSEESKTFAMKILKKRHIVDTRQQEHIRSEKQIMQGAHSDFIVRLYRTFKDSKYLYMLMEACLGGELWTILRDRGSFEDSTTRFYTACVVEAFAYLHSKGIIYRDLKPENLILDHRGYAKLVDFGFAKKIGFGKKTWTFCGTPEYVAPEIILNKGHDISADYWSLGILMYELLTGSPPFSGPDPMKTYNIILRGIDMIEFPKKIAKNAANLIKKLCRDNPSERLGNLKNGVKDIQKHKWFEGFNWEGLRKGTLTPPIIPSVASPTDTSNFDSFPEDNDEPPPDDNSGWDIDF

[2] = target: Phosphorylase b kinase gamma catalytic chain, liver/testis isoform (Homo sapiens, UniProt P15735);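 further: PHKG2 measured as one member of a kinome-wide kinase panel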
[3] = target: 5'-AMP-activated protein kinase catalytic subunit alpha-1 (Homo sapiens, UniProt Q13131)
Aurora kinase A = Aurora kinase A (Homo sapiens, UniProt O14965);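 further: value from the Navigating the Kinome kinase panel profiling, panel entry STK6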
[4] = target: Casein kinase II subunit alpha (Homo sapiens, UniProt P68400)
Chain of Casein kinase II subunit alpha (P68400 whole entry): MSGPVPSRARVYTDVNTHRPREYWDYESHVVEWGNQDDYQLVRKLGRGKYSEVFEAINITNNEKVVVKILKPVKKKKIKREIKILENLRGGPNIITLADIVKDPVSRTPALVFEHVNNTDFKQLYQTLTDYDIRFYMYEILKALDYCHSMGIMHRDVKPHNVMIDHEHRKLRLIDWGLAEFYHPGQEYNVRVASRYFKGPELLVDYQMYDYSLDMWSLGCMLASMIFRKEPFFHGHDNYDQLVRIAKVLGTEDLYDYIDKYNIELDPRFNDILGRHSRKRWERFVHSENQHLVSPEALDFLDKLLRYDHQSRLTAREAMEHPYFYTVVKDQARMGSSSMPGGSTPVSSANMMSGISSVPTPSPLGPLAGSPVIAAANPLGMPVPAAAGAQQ

[5] = target: Serine/threonine-protein kinase PAK 1 (Homo sapiens, UniProt Q13153)
Chain of Serine/threonine-protein kinase PAK 1 (Q13153 whole entry): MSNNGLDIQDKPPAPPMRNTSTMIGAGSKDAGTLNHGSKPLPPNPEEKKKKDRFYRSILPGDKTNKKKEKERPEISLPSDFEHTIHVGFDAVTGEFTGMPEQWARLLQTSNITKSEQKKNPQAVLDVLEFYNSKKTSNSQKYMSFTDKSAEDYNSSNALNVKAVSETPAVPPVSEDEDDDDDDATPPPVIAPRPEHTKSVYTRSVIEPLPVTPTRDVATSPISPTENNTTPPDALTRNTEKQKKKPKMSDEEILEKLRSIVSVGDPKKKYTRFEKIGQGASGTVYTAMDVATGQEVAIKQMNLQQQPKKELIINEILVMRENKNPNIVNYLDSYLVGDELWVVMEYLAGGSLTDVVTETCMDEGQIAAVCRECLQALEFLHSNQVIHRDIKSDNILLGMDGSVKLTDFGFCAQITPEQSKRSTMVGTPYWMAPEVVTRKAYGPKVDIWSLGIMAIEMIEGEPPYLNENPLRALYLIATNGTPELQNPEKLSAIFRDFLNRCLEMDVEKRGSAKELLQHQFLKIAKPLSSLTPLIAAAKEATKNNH

[6] = target: T2, Tyrosine-protein kinase JAK3 (Homo sapiens, UniProt P52333)
T2 sequence (P52333 whole entry): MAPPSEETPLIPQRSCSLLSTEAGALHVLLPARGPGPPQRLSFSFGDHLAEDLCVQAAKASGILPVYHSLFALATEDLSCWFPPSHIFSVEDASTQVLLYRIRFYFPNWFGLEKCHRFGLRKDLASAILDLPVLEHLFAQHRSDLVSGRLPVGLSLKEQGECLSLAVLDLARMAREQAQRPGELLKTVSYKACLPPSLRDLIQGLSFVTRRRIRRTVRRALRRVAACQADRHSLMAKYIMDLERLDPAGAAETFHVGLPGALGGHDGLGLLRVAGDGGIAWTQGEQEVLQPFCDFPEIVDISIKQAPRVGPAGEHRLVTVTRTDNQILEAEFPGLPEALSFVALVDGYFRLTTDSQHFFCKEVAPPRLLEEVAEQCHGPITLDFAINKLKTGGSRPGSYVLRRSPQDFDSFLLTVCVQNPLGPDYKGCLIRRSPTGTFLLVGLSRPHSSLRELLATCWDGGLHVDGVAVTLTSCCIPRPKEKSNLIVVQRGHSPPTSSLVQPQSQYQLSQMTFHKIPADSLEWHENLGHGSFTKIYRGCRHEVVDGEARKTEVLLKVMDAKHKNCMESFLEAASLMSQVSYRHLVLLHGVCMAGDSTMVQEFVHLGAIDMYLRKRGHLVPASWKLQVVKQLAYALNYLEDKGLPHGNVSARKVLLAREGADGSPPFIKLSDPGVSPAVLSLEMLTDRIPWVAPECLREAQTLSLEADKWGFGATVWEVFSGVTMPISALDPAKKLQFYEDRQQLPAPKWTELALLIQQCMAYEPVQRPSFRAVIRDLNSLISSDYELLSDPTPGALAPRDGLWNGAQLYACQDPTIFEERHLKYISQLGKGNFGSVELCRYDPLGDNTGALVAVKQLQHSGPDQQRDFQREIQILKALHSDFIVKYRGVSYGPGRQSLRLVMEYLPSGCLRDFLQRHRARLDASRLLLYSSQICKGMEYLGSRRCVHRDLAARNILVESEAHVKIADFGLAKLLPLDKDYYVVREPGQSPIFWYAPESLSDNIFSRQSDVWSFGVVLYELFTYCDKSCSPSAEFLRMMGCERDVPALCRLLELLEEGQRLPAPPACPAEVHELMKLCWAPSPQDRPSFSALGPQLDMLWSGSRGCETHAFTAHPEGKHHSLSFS

[7] = target: Proto-oncogene tyrosine-protein kinase ROS (Homo sapiens, UniProt P08922);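 further: ROS1 tested as one member of a kinome-wide kinase panel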
[8] = target: Testis-specific serine/threonine-protein kinase 1 (Homo sapiens, UniProt Q9BXA7)
[9] = target: Homeodomain-interacting protein kinase 2 (Homo sapiens, UniProt Q9H2X6);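 further: measured within a kinome-wide kinase profiling panel, HIPK2 being one panel member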
Chain of Homeodomain-interacting protein kinase 2 (Q9H2X6 whole entry): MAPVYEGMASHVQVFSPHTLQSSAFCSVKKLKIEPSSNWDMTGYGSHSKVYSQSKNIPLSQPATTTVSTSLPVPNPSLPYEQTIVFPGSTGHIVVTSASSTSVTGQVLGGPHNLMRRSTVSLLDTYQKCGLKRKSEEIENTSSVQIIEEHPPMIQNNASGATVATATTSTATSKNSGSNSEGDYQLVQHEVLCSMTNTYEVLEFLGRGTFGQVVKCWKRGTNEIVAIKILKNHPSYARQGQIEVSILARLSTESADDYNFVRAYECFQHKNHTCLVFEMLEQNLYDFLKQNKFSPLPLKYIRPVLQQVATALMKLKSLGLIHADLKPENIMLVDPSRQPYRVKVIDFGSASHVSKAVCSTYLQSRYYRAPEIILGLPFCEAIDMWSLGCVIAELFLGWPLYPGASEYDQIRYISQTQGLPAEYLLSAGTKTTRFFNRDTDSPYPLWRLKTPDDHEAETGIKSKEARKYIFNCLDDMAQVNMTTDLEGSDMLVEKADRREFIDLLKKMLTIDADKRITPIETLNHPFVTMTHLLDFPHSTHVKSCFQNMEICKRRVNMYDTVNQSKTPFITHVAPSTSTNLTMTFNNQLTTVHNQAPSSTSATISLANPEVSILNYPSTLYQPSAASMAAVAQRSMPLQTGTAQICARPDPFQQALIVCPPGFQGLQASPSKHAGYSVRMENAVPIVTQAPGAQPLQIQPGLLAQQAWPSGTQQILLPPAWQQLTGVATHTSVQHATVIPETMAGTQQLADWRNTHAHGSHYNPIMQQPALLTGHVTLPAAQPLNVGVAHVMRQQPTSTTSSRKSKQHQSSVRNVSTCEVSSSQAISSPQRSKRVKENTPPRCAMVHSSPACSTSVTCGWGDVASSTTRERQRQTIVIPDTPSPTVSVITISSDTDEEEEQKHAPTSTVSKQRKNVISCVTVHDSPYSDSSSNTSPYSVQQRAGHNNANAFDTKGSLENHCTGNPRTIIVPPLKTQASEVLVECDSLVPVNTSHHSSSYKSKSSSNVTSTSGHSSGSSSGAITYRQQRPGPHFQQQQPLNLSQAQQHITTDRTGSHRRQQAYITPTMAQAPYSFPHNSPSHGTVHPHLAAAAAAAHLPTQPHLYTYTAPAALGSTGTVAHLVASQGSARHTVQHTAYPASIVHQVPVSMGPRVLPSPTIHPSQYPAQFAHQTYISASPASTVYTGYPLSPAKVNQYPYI

[10] = target: Serine/threonine-protein kinase Chk1 (Homo sapiens, UniProt O14757);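 further: measured as one member of a kinome-wide kinase profiling panel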
Chain of Serine/threonine-protein kinase Chk1 (O14757 whole entry): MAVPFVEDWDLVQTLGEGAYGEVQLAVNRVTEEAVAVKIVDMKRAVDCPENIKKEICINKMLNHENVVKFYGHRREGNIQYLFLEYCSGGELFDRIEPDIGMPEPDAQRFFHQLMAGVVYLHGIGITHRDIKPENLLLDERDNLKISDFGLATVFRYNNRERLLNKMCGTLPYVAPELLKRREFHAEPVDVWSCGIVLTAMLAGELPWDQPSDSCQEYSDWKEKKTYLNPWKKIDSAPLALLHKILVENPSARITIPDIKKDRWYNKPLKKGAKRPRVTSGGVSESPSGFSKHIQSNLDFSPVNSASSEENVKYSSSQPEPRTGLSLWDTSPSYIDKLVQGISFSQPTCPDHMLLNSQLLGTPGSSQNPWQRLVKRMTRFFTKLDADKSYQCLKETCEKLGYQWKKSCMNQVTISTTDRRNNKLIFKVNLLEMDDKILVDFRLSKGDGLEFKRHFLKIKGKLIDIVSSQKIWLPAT

[11] = target: Insulin-like growth factor 1 receptor (Homo sapiens, UniProt P08069); experiment: Navigating the Kinome. Panel member name: IGF1R
[12] = target: Mitogen-activated protein kinase 1 (Homo sapiens, UniProt P28482)
Chain of Mitogen-activated protein kinase 1 (P28482 whole entry): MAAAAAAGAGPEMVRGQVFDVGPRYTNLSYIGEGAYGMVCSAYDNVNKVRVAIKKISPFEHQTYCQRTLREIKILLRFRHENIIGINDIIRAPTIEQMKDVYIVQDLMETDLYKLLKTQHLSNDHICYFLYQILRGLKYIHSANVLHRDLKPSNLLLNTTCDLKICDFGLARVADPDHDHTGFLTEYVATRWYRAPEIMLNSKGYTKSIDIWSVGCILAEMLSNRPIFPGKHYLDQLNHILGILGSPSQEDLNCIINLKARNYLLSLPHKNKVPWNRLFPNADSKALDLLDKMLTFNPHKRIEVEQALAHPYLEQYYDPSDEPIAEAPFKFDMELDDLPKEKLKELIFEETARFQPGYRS

Misshapen-like kinase 1 = Misshapen-like kinase 1 (Homo sapiens, UniProt Q8N4C8);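 further: kinome panel screen with MINK as the panel member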
Chain of Misshapen-like kinase 1 (Q8N4C8 whole entry): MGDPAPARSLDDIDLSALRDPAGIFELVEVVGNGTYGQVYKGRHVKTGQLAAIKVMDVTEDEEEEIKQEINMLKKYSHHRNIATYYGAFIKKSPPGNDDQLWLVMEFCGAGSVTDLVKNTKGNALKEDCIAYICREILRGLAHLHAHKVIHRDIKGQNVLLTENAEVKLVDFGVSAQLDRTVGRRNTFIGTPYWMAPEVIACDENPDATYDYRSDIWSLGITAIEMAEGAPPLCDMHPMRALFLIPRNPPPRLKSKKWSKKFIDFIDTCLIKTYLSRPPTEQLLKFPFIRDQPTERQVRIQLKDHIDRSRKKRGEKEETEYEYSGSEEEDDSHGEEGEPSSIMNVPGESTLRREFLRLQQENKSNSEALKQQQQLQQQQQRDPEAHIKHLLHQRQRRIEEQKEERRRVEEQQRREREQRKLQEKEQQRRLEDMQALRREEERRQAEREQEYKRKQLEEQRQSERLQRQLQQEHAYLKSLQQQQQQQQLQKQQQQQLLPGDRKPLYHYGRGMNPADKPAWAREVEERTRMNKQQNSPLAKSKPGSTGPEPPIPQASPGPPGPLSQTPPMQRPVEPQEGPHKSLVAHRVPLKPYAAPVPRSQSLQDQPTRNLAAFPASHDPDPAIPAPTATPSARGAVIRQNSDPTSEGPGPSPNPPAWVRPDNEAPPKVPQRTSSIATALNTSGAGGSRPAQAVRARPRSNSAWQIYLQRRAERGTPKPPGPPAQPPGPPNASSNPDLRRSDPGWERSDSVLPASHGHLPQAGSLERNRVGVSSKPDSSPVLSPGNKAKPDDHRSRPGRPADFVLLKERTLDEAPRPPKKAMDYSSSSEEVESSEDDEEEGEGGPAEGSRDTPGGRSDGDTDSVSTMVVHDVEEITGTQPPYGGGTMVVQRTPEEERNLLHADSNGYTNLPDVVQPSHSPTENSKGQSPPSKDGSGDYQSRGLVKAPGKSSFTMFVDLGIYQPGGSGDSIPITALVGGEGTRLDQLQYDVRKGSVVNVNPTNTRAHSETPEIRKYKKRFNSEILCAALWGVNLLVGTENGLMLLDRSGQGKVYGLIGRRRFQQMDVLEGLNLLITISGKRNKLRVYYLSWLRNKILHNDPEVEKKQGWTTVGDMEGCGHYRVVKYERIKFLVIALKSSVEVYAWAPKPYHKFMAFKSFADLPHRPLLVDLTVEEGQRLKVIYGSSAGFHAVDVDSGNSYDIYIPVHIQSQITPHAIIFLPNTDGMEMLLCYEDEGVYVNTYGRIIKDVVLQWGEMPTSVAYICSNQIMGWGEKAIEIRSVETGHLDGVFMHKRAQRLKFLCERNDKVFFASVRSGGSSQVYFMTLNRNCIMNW

[13] = target: Interleukin-1 receptor-associated kinase 1 (Homo sapiens, UniProt P51617);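 further: IRAK1 tested as one member of a kinome panel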
Chain of Interleukin-1 receptor-associated kinase 1 (P51617 whole entry): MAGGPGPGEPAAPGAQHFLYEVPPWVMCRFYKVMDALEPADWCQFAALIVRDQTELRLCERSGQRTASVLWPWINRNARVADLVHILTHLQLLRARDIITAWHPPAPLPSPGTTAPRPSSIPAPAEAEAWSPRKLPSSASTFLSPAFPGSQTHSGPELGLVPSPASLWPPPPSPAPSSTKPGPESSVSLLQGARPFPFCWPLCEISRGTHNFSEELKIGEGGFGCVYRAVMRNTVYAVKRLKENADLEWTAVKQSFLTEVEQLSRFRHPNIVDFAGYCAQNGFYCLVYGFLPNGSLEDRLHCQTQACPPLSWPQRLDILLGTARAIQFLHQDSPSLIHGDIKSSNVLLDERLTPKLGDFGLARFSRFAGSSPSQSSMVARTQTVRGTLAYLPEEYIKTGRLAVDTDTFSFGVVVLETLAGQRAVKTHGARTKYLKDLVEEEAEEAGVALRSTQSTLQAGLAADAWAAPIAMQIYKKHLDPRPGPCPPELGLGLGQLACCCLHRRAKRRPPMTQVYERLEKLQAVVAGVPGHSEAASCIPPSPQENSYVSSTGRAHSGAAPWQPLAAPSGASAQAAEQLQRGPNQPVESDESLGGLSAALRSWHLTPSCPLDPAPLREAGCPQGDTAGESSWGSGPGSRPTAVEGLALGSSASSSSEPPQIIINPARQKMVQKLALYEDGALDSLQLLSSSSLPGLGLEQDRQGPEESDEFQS

[14] = target: Serine/threonine-protein kinase DCLK1 (Homo sapiens, UniProt O15075);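 further: affinity for DCLK1 (listed as DCAMKL1) measured as one member of a kinome-wide kinase profiling panel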
[15] = target: Fibroblast growth factor receptor 3 (Homo sapiens, UniProt P22607)
[16] = target: Receptor tyrosine-protein kinase erbB-4 (Homo sapiens, UniProt Q15303);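 further: ERBB4 member of a kinome-wide kinase profiling panel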
[17] = target: Macrophage colony-stimulating factor 1 receptor (Homo sapiens, UniProt P07333);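 further: value comes from the Navigating the Kinome screening panel, CSF1R member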
[18] = target: Calcium/calmodulin-dependent protein kinase type II subunit alpha (Homo sapiens, UniProt Q9UQM7); experiment: Navigating the Kinome. Panel member name: CAMK2A

`NC(=O)c1cc(-c2ccnc(N)n2)[nH]c1-c1ccc(Cl)cc1Cl` was tested, and the Ki [1] was 0.794 µM (active), the pKi [1] was 6.1 and the Ki [2] was > 5.01 µM (inactive). For the same compound, the Ki [3] was > 1.58 µM (inactive), the Ki (Aurora kinase A) was > 1.58 µM (inactive) and the Ki [4] was 0.2 µM (active). The pKi [4] was 6.7, the Ki [5] was > 10 µM (inactive) and the Ki [6] was 1 µM (active). For the same compound, the pKi [6] was 6, the Ki [7] was > 2 µM (inactive) and the Ki [8] was > 1.58 µM (inactive). The Ki [9] was 0.0251 µM (active), the pKi [9] was 7.6 and the Ki [10] was > 7.94 µM (inactive). For the same compound, the Ki [11] was > 2 µM (inactive), the Ki [12] was 0.0316 µM (active) and the pKi [12] was 7.5. The Ki (Misshapen-like kinase 1) was 1.58 µM (active), the pKi (Misshapen-like kinase 1) was 5.8 and the Ki [13] was 0.1 µM (active). For the same compound, the pKi [13] was 7, the Ki [14] was > 10 µM (inactive) and the Ki [15] was > 2 µM (inactive). For the same compound, the Ki [16] was > 3.98 µM (inactive), the Ki [17] was > 2.51 µM (inactive) and the Ki [18] was > 7.94 µM (inactive).
With `NC(COc1cncc(-c2ccc3c(c2)C(=Cc2ccco2)C(=O)N3)c1)Cc1c[nH]c2ccccc12` (configuration not stated) the Ki [1] was 0.00126 µM (active), the Ki [2] was 0.0126 µM (active) and the Ki [3] was 0.02 µM (active). For the same compound, the Ki (Aurora kinase A) was > 1.58 µM (inactive), the Ki [4] was > 6.31 µM (inactive) and the Ki [5] was 0.398 µM (active). The Ki [6] was 0.0501 µM (active), the Ki [7] was 1 µM (active) and the Ki [8] was 0.00631 µM (active). The Ki [9] was 0.0398 µM (active), the Ki [10] was 0.398 µM (active) and the Ki [11] was > 1 µM (inactive). For the same compound, the Ki [12] was 0.398 µM (active), the Ki (Misshapen-like kinase 1) was 0.0398 µM (active) and the Ki [13] was 0.501 µM (active). The Ki [14] was 1 µM (active), the Ki [15] was > 2 µM (inactive) and the Ki [16] was > 3.98 µM (inactive). The Ki [17] was > 2.51 µM (inactive).
In the case of `Cc1ccc(-n2nc(C(C)(C)C)cc2NC(=O)Nc2ccc(OCCN3CCOCC3)c3ccccc23)cc1` [DORAMAPIMOD], the Ki [18] is reported as > 3.98 µM (inactive).
